# Data published in patent US20220031605A1, “TARGETED DRUG DELIVERY SYSTEM TO BE USED IN TREATING OSTEOMYELITIS” (EGE UNIVERSITESI, priority 2018, published 2022).
# Test system: Staphylococcus Aureus
# Experiment: In vivo osteomyelitis model (Staphylococcus Aureus injected to proximal tibia), radiograph and hematological analysis
# Design: species or system Wistar albino rats
# Conditions: rat osteomyelitis model
# Method: Wistar albino rats were operated on, and osteomyelitis model was established by injecting Staphylococcus Aureus pathogen to the proximal tibia. In order to determined that the osteomyelitis model was formed, Xray (Radiograph) image was taken. The animals that were determined to have osteomyelitis, were separated into 3 groups, as the gelatin nanoparticle comprising gentamicin (I), free drug (II) and control (III) groups, and they were included in the treatment with 2-4 injections a weak. 100-300 μl, gelatin nanoparticle comprising gentamicin, free form (commercial gentamicin and physiological saline solution was injected intravenously into the tail vein of the groups I, II, and III respectively. On the 14th day following the commencement of treatment, a radiograph was taken in order to track the treatment process. Hematological analysis was carried out during the treatment and after the treatment. The lymphocyte reference range for rats was 1.4-9.4×10^3/μL. As a result of the haemogram carried out on healthy rats, the lymphocyte value was 7.4×10^3/μL.
substance,measurement,setting,value
gentamicin [Free gentamicin],Lymphocyte number following 6 dose stherapy,"intravenous, tail vein, after 6 doses, reference range 1.4-9.4, healthy rats 7.4",12.6 10^3/μL
same,Radiograph finding after therapy,"radiograph following 6 doses of therapy, compared with image 14 days after model establishment","abscess was present, bone integrity was not yet formed and healing was only present on the periost"
